This note sets out measurements from PubChem BioAssay (NCI).

Structures are written as SMILES.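 In this assay, cells in 96-well plates receive the compound at five concentrations for 48 hours. Endpoints are linearly interpolated between the surrounding concentrations. The concentration for 50% growth inhibition is given as GI50. TGI is the concentration that stops growth completely.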 Some results are limits rather than exact numbers.

Among the test systems are A498 renal; A549 NSCLC; HCC-2998 colon; HOP-92 NSCLC; OVCAR-3 ovarian; SW-620 colon; U251 CNS; UO-31 renal; OVCAR-4 ovarian; T-47D breast.
Holding throughout (assay): inhibition of tumour cell growth, NCI panel, 48 h

In the case of `C/C(CC(=O)NCCc1ccccc1)=N\NS(=O)(=O)c1ccc(C)cc1`, the TGI in the test with A498 renal, in the test on A549 NSCLC, in the test with HCC-2998 colon, with HOP-92 NSCLC, in the test with OVCAR-3 ovarian and in the test on SW-620 colon was > 100 µM in each case. The TGI in the test with U251 CNS and in the test on UO-31 renal was > 100 µM in each case.
With `C=CCn1c(=S)sc2c(C(=O)OCC)c3c(C)cc(C)cn3c2c1=O`, the TGI in the test on A549 NSCLC, with HCC-2998 colon, in the test with OVCAR-3 ovarian, in the test with SW-620 colon, in the test on U251 CNS and with UO-31 renal was > 100 µM each time.
`C/C(CC(=O)Nc1cccc(Cl)c1C)=N\NC(N)=S`: the TGI in the test on A498 renal, in the test on A549 NSCLC, in the test on HCC-2998 colon, with HOP-92 NSCLC, with OVCAR-3 ovarian and in the test with SW-620 colon was > 100 µM each time. Also, the TGI in the test on U251 CNS and in the test on UO-31 renal was > 100 µM in each case.
As to `ClC(Cl)=C(Cl)C1(Cl)CC1COCc1ccccc1` (stereo not given), the TGI in the test with A498 renal was > 100 µM; in the test on A549 NSCLC it was > 100 µM; in the test with HCC-2998 colon, 81.2 µM; in the test with HOP-92 NSCLC, 42.8 µM; in the test on OVCAR-3 ovarian, 68.2 µM; in the test with OVCAR-4 ovarian, > 100 µM. The TGI in the test with SW-620 colon is > 100 µM; in the test with UO-31 renal, 74.1 µM.
On to `C[N+]1=c2c3cccc4cccc(c(=O)n2CC1)c43`, for which the TGI in the test with A498 renal was 30.9 µM; with A549 NSCLC, 53 µM; with HOP-92 NSCLC it was 61.8 µM; in the test with OVCAR-3 ovarian, 79.8 µM; in the test with OVCAR-4 ovarian, 43.9 µM; in the test with SW-620 colon it was > 100 µM. Besides, the TGI came to 85.8 µM in the test on U251 CNS and 32.4 µM in the test with UO-31 renal.
For `CCCn1c2c(c3c(O)cccc31)C(=O)c1ccccc1-2`, the GI50 was 21.8 µM in the test with A549 NSCLC; 9.72 µM in the test on HCC-2998 colon; 31.3 µM with OVCAR-3 ovarian; 0.0961 µM with OVCAR-4 ovarian; > 100 µM with SW-620 colon; 10 µM in the test with T-47D breast. Besides, the GI50 with U251 CNS was 18.2 µM; in the test with UO-31 renal, 22.8 µM. Besides, the TGI with A549 NSCLC is > 100 µM; in the test with HCC-2998 colon, > 100 µM; with OVCAR-3 ovarian, > 100 µM; in the test on OVCAR-4 ovarian, 6.12 µM; in the test on SW-620 colon, > 100 µM; with T-47D breast, > 100 µM. Further, the figures for the TGI with U251 CNS and in the test on UO-31 renal were 56.2 µM and > 100 µM, respectively.
On to `COc1cc2c(cc1OC)C(C(=O)O)C(c1ccccc1)N(C)C2=O` (stereo not given), for which the TGI in the test with A498 renal, with A549 NSCLC, in the test with HCC-2998 colon, with OVCAR-3 ovarian, with OVCAR-4 ovarian and with SW-620 colon was > 100 µM in each case. The TGI in the test on U251 CNS and in the test with UO-31 renal was > 100 µM in each case.
For `C#CC1(O)CCC2C3CCc4cc(Oc5nc(F)nc(-c6c7ccccc7c7n6CCS7)n5)ccc4C3CC[C@@]21C` (stereo not given in full), the TGI in the test with A549 NSCLC is > 100 µM; in the test with HCC-2998 colon it was 41.7 µM; with HOP-92 NSCLC, 47 µM; in the test with OVCAR-3 ovarian it was 32.2 µM; with OVCAR-4 ovarian, 68.6 µM; in the test on SW-620 colon, > 100 µM. Further, the TGI in the test on U251 CNS amounted to 40.7 µM; in the test on UO-31 renal it was 78.3 µM.
Consider `CC(C)/C=C1\CCC(CN2CCOCC2)C1=O` (stereo not given), for which the TGI is > 51.3 µM with A498 renal; 72.6 µM with A549 NSCLC; 36.5 µM with HCC-2998 colon; 38.9 µM with HOP-92 NSCLC; 32.7 µM in the test with OVCAR-3 ovarian; 40 µM in the test on OVCAR-4 ovarian. Further, the TGI with SW-620 colon was 8.08 µM; with U251 CNS, > 56.4 µM; in the test on UO-31 renal, 38.6 µM.
As to `[N-]=[N+]=NC(c1cn(C2CC(O)C(CO)O2)c(=O)[nH]c1=O)C(Cl)Br` (stereo not given), the TGI in the test on A549 NSCLC, in the test with HCC-2998 colon, in the test with HOP-92 NSCLC, in the test with SW-620 colon, in the test on U251 CNS and with UO-31 renal was > 100 µM throughout.
As for `Cc1cc(N(CCC#N)S(=O)(=O)c2ccccc2)ccc1/C=C1\N=C(c2ccc(Cl)cc2)OC1=O`, the TGI in the test on A498 renal, with A549 NSCLC, with HCC-2998 colon, in the test on HOP-92 NSCLC, in the test with OVCAR-3 ovarian and in the test on OVCAR-4 ovarian was > 100 µM throughout. Besides, the TGI in the test on SW-620 colon, in the test on U251 CNS and in the test on UO-31 renal was > 100 µM each time.
As to `C=C1CC(CC)(CCN2C(=O)c3ccccc3C2=O)OC1=O` (stereo not given), the TGI is 36.8 µM in the test on A498 renal; > 100 µM with A549 NSCLC; 32.1 µM in the test on HCC-2998 colon; 27.8 µM in the test with OVCAR-4 ovarian; 22.9 µM in the test on SW-620 colon; 36.2 µM with UO-31 renal.
In the case of `CC(C)N(C(=O)c1cccc(C(=O)N(C(C)C)C(C)C)c1)C(C)C`, the TGI in the test on A498 renal, in the test on A549 NSCLC, with HCC-2998 colon, in the test on HOP-92 NSCLC, in the test on OVCAR-3 ovarian and with OVCAR-4 ovarian was > 100 µM throughout. For the same compound, the TGI in the test on SW-620 colon, in the test on U251 CNS and with UO-31 renal was > 100 µM each time.
As to `C=CC(=O)N1C/C(=C\c2ccc(Cl)c(Cl)c2)C(=O)/C(=C/c2ccc(Cl)c(Cl)c2)C1`, the TGI in the test with A498 renal stood at 1.89 µM; with HCC-2998 colon it was 0.446 µM; with HOP-92 NSCLC, 2.94 µM; in the test with OVCAR-3 ovarian it was 0.219 µM; in the test on OVCAR-4 ovarian it was 0.122 µM; in the test with SW-620 colon it was 0.262 µM. The TGI is 0.0724 µM in the test with U251 CNS and 0.528 µM in the test with UO-31 renal.
On to `COC1C(OC(=O)c2ccc(C)[nH]2)C(O)C(Oc2ccc3c(O)c(NC(=O)c4c[nH]c(C(=O)Nc5c(O)c6ccc(OC7OC(C)(C)C(OC)C(OC(=O)c8ccc(C)[nH]8)C7O)c(C)c6oc5=O)c4C)c(=O)oc3c2C)OC1(C)C` (stereo not given), for which the TGI in the test with A498 renal was 4.8 µM; in the test with A549 NSCLC it was 61.3 µM; in the test with HCC-2998 colon it was 7.26 µM; in the test on OVCAR-3 ovarian it was 41.1 µM; in the test with OVCAR-4 ovarian, 6.82 µM; in the test on SW-620 colon, 45.9 µM. Moreover, the TGI in the test on U251 CNS amounted to 2.89 µM; in the test with UO-31 renal it was 2.94 µM.
